# Legend:
# tyrosinase [1] = biological target: T1, tyrosinase (Agaricus bisporus, UniProt C7FF04); experiment: biochemical
# Target sequence in this assay (C7FF04 1-392): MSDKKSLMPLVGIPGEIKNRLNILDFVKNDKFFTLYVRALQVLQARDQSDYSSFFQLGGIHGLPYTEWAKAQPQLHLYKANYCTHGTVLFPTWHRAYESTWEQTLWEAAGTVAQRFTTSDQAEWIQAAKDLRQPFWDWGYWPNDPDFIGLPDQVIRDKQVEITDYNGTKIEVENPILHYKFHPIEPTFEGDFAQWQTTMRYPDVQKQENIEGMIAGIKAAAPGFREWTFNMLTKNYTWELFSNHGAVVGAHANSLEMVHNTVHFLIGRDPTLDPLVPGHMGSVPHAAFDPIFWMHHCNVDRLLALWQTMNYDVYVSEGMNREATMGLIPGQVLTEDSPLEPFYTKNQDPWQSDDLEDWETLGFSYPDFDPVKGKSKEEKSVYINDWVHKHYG
# tyrosinase [2] = biological target: T1, tyrosinase; experiment: Kinetic assay for inhibition action; assay type: biochemical; details: for Inhibition type: Lineweaver-Burk plot
# Target sequence in this assay (C7FF04 1-392): as above
# tyrosinase [3] = biological target: T1, tyrosinase; experiment: Fluorescence quenching of tyrosinase; assay type: binding; details: for Kd: Ka; for quenching mechanism: Ksv decreasing with temperature; for ΔH / ΔS: van't Hoff equation, 298-310 K
# Target sequence in this assay (C7FF04 1-392 limits assumed): as the sequence (C7FF04 1-392) above
IC50 (tyrosinase [1]),Inhibition type (tyrosinase [2]),numbers of binding sites (n) (tyrosinase [3]),Kq (tyrosinase [3]; 298 K),Kq (tyrosinase [3]; 304 K),Kq (tyrosinase [3]; 310 K),Kd (tyrosinase [3]; T 298 K),Kd (tyrosinase [3]; T 304 K),quenching mechanism (tyrosinase [3]),KSV (tyrosinase [3]; T 298 K),n (number of binding sites) (tyrosinase [3]; T 298 K),ΔG (tyrosinase [3]; T 298 K),KSV (tyrosinase [3]; T 304 K),n (number of binding sites) (tyrosinase [3]; T 304 K),ΔG (tyrosinase [3]; T 304 K),KSV (tyrosinase [3]; T 310 K),n (number of binding sites) (tyrosinase [3]; T 310 K),ΔG (tyrosinase [3]; T 310 K),ΔH (tyrosinase [3]),ΔS (tyrosinase [3]),Structure (SMILES),also measured
96.4 ± 9.9 µM,Mixed,~1,0.73 × 10^12 L mol^−1 S^−1,0.65 × 10^12 L mol^−1 S^−1,0.51 × 10^12 L mol^−1 S^−1,5.46 µM,5.18 µM,static,0.73 ± 0.01 10^4L·mol^−1,1.10,-0.707 ± 0.0024 kcal/mol,0.65 ± 0.02 10^4L·mol^−1,1.12,-0.7 ± 0.0024 kcal/mol,0.51 ± 0.01 10^4L·mol^−1,1.08,-0.693 ± 0.0048 kcal/mol,-1.07 ± 0.502 kcal/mol,−5.10 ± 1.19 J mol^−1k^−1,COc1cc(-c2oc3cc(O)cc(O)c3c(=O)c2O)ccc1O [Isorhamnetin],Inhibition type (tyrosinase [2]; listed as isorhamnetin): mixed inhibition; Kis (tyrosinase [2]; binding to enzyme-substrate complex): 0.924 ± 0.02 mg/mL; Kd (tyrosinase [3]; T 310 K): 9.8 µM
82.1 ± 13.7 µM,Competitive,~1,1.03 × 10^12 L mol^−1 S^−1,0.83 × 10^12 L mol^−1 S^−1,0.73 × 10^12 L mol^−1 S^−1,47.6 µM,16.9 µM,static,1.03 ± 0.04 10^4L·mol^−1,1.08,-0.717 ± 0.014 kcal/mol,0.83 ± 0.1 10^4L·mol^−1,1.22,-0.782 ± 0.0072 kcal/mol,0.73 ± 0.02 10^4L·mol^−1,1.27,-0.846 ± 0.012 kcal/mol,2.49 ± 0.263 kcal/mol,45.03 ± 7.1 J mol^−1k^−1,O=c1c(O)c(-c2ccc(O)cc2)oc2cc(O)cc(O)c12 [Kaempferol],Kd (tyrosinase [3]; T 310 K): 12.3 µM
,Competitive,~2,1.44 × 10^12 L mol^−1 S^−1,1.17 × 10^12 L mol^−1 S^−1,1.13 × 10^12 L mol^−1 S^−1,,,static,1.44 ± 0.21 10^4L·mol^−1,1.44,-0.923 ± 0.012 kcal/mol,1.17 ± 0.11 10^4L·mol^−1,1.46,-0.985 ± 0.0048 kcal/mol,1.13 ± 0.15 10^4L·mol^−1,1.61,-1.05 ± 0.0048 kcal/mol,2.18 ± 0.311 kcal/mol,43.56 ± 3.21 J mol^−1k^−1,O=c1c(O)c(-c2ccc(O)c(O)c2)oc2cc(O)cc(O)c12 [Quercetin],

# Source: PMC11462347 (Heliyon, 2024)
